Data on one compound can be found in patent US11584732B2, “Methods of treatment using 4-(3-cyanophenyl)-6-pyridinylpyrimidine mGlu5 modulators” (Heptares Therapeutics Limited, priority 2013, dated 2023).

The subject of this assay is CD-1 mice. Briefly: In vivo efficacy test - marble burying. The following applies: male CD-1 mice, po, 30 min prior to test; at a dose of 10 and 30 mg/kg versus vehicle group. The arrangement: species or system mouse.

In the case of `N#Cc1cc(Cl)cc(-c2cc(-c3ccc(F)cn3)ncn2)c1` [Example 17, 3-chloro-5-[6-(5-fluoropyridin-2-yl)pyrimidin-4-yl]benzonitrile], the “number of marbles buried” value was “statistically significant decrease”.
